The experiment addresses His-GST tagged PARG (Homo sapiens, UniProt Q86W56). Kind of experiment: In vitro PARG assay (TR-FRET). It counts as biochemical. Conditions: 4 pM His-GST tagged PARG, 30 nM Bio PARylated PARP1 substrate, 20 min at room temperature, TR-FRET Em 665/Em 615. The method, then: The in vitro PARG assay experiment was conducted in a standard 384-well plate with a total volume of 15 µL. To a 384-well plate containing the test compound was added 5 µL of an enzyme reaction mixture (50 mM Tris-HCL pH 7.5, 50 mM KCL, 0.01% Triton X-100, 0.01% BSA, and 4 pM His-GST tagged PARG). The plate was incubated at room temperature for 10 min, and then 5 µL of a substrate mixture (50 mM Tris-HCL pH 7.5, 50 mM KCL, 0.01% Triton X-100, 0.01% BSA, and 30 nM Bio PARylated PARP1) was added to initiate the reaction. The plate was further incubated at room temperature for 20 min, and then 5 µL of a detection reagent was added to terminate the reaction. The detection reagent was prepared from a buffer (50 mM Tris-HCl pH 7.5, 50 mM KCL, 0.01% Triton X-100, and 0.01% BSA), 3 µM compound PDD00017273, 1.5× Mab anti-6HIS XL665 (Cisbio: 61HISXLA), and 1.5× streptavidin terbium cryptate (Cisbio: 610SATLA). The final concentrations of the compound PDD00017273, the 1.5× Mab anti-6HIS XL665 (Cisbio: 61HISXLA), and the 1.5× streptavidin terbium cryptate were 1 µM, 0.5×, and 0.5×, respectively. After incubation in the dark at room temperature for 120 min, TR-FRET signals were measured at Ex 340, Em 665, and Em 615. The ratio for each well was calculated as Em 665/Em 615 (the ratio here corresponds to the ratio of fluorescence signals at the wavelengths).
A general note: TR-FRET usually uses a lanthanide donor and a delayed reading to cut background.

His-GST tagged PARG, sequence (Q86W56 whole entry): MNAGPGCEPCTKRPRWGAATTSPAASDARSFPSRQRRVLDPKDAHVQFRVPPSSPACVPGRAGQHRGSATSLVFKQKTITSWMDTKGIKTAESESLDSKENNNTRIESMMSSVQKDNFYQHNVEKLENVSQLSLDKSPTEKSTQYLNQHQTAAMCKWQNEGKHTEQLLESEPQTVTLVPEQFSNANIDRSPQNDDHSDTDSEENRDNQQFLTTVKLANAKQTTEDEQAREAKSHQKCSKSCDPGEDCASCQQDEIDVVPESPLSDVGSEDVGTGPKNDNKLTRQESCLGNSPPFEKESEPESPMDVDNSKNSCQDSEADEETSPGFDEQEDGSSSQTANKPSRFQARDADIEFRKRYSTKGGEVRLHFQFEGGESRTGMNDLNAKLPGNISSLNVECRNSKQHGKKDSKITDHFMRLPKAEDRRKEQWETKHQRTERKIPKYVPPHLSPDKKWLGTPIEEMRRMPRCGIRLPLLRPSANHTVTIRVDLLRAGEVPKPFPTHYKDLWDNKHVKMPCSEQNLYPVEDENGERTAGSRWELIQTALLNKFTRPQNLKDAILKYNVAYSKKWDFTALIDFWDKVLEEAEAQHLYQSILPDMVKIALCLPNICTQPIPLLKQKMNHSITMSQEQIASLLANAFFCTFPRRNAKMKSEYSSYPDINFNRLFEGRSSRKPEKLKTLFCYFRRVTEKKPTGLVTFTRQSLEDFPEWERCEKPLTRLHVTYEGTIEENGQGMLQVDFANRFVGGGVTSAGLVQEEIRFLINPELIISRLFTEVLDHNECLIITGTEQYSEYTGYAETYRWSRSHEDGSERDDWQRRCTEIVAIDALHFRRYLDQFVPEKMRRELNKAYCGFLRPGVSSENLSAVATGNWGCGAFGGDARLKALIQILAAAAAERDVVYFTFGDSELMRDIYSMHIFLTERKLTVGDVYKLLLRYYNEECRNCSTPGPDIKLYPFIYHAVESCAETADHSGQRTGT

In the case of `C[C@@H]1CN(c2cc(S(=O)(=O)NC3(C#N)CC3)cc3c2cnn3-c2nnc(C(F)F)s2)CCN1C(=O)C(O)C1CC1` (single isomer, unassigned) [EVO29534], the IC50 was less than 100 nM.

In turn, `C[C@@H]1CN(c2cc(S(=O)(=O)NC3(C#N)CC3)cc3c2cnn3-c2nnc(C(F)F)s2)CCN1C(=O)C(O)C1CC1` (single isomer, unassigned) [EVO29537] had a half-maximal inhibitory concentration (IC50) of less than 100 nM. With `CCOC(C(=O)N1CCN(c2cc(S(=O)(=O)NC3(C#N)CC3)cc3c2cnn3-c2nnc(C(F)F)s2)C[C@H]1C)C1CC1` (single isomer, unassigned) [EVO29710P1] the figure was less than 100 nM; with `CCOC(C(=O)N1CCN(c2cc(S(=O)(=O)NC3(C#N)CC3)cc3c2cnn3-c2nnc(C(F)F)s2)C[C@H]1C)C1CC1` (single isomer, unassigned) [EVO29710P2], less than 100 nM. For `COC(C(=O)N1CCN(c2cc(S(=O)(=O)NC3(C#N)CC3)cc3c2cnn3-c2nnc(C(F)F)s2)C[C@H]1C)C1CC1` (single isomer, unassigned) [EVO29715P1] the value was less than 100 nM; for `COC(C(=O)N1CCN(c2cc(S(=O)(=O)NC3(C#N)CC3)cc3c2cnn3-c2nnc(C(F)F)s2)C[C@H]1C)C1CC1` (single isomer, unassigned) [EVO29715P2], less than 100 nM. For `C[C@@H]1CN(c2cc(S(=O)(=O)NC3(C#N)CC3)cc3c2cnn3-c2nnc(C(F)F)s2)CCN1C(=O)C(O)C(C)(C)CF` (single isomer, unassigned) [EVO29751P1] the value was less than 100 nM. In turn, `C[C@@H]1CN(c2cc(S(=O)(=O)NC3(C#N)CC3)cc3c2cnn3-c2nnc(C(F)F)s2)CCN1C(=O)C(O)C(C)(C)CF` (single isomer, unassigned) [EVO29751P2] displayed an IC50 of less than 100 nM. `C[C@@H]1CN(c2cc(S(=O)(=O)NC3(C#N)CC3)cc3c2cnn3-c2nnc(C(F)F)s2)CCN1C(=O)C(O)C(C)(C)C(F)F` (single isomer, unassigned) [EVO29752P1] yielded an IC50 of less than 100 nM. With `C[C@@H]1CN(c2cc(S(=O)(=O)NC3(C#N)CC3)cc3c2cnn3-c2nnc(C(F)F)s2)CCN1C(=O)C(O)C(C)(C)C(F)F` (single isomer, unassigned) [EVO29752P2] the figure was less than 100 nM. With `C[C@@H]1CN(c2cc(S(=O)(=O)NC3(C#N)CC3)cc3c2cnn3-c2nnc(C(F)F)s2)CCN1C(=O)C(O)C(C)(C)CO` (single isomer, unassigned) [EVO29790P1] the figure was less than 100 nM. With `C[C@@H]1CN(c2cc(S(=O)(=O)NC3(C#N)CC3)cc3c2cnn3-c2nnc(C(F)F)s2)CCN1C(=O)C(O)C(C)(C)CO` (single isomer, unassigned) [EVO29790P2] the figure was less than 100 nM; with `N#CC1(NS(=O)(=O)c2cc(N3CCN(C(=O)CO)CC3)c3cnn(-c4nnc(C(F)F)s4)c3c2)CC1` [EVO29103], less than 100 nM. `C[C@@H](O)C(=O)N1CCN(c2cc(S(=O)(=O)NC3(C#N)CC3)cc3c2cnn3-c2nnc(C(F)F)s2)CC1` [EVO29284] yielded an IC50 of less than 100 nM.

As to `C[C@@H]1CN(c2cc(S(=O)(=O)NC3(C#N)CC3)cc3c2cnn3-c2nnc(C(F)F)s2)CCN1C(=O)[C@@H](C)O` [EVO29285], the IC50 is less than 100 nM. The compound `CC(C)C(=O)C(=O)N1CCN(c2cc(S(=O)(=O)NC3(C#N)CC3)cc3c2cnn3-c2nnc(C(F)F)s2)C[C@H]1C` [EVO29291] registered an IC50 of less than 100 nM. With `C[C@@H]1CN(c2cc(S(=O)(=O)NC3(C#N)CC3)cc3c2cnn3-c2nnc(C(F)F)s2)CCN1C(=O)C(N)=O` [EVO29298] the figure was less than 100 nM; with `Cc1nnc(-n2ncc3c(N4CCN(C(=O)[C@@H](N)CO)[C@H](C)C4)cc(S(=O)(=O)NC4(C)CC4)cc32)s1` [EVO29314], 100 to 500 nM; with `C[C@H](O)C(=O)N1CCN(c2cc(S(=O)(=O)NC3(C#N)CC3)cc3c2cnn3-c2nnc(C(F)F)s2)C[C@H]1C` [EVO29334], less than 100 nM. For `CC(C)[C@@H](O)C(=O)N1CCN(c2cc(S(=O)(=O)NC3(C#N)CC3)cc3c2cnn3-c2nnc(C(F)F)s2)C[C@H]1C` [EVO29335] the value was less than 100 nM.

The compound `Cc1nnc(-n2ncc3c(N4CCN(C(=O)[C@@H](C)O)[C@H](C)C4)cc(S(=O)(=O)NC4(C#N)CC4)cc32)s1` [EVO29336] showed an IC50 of less than 100 nM.

Compound `C[C@@H]1CN(c2cc(S(=O)(=O)NC3(C)CC3)cc3c2cnn3-c2nnc(C(F)F)s2)CCN1C(=O)[C@@H](C)O` [EVO29337] gave an IC50 of less than 100 nM. As to `Cc1nnc(-n2ncc3c(N4CCN(C(=O)[C@@H](C)O)[C@H](C)C4)cc(S(=O)(=O)NC4(C)CC4)cc32)s1` [EVO29338], the IC50 is less than 100 nM.

Compound `C[C@@H]1CN(c2cc(S(=O)(=O)NC3(C#N)CC3)cc3c2cnn3-c2nnc(C(F)F)s2)CCN1C(=O)C(C)(C)O` [EVO29339] had a half-maximal inhibitory concentration (IC50) of less than 100 nM. For `C[C@H](CO)C(=O)N1CCN(c2cc(S(=O)(=O)NC3(C#N)CC3)cc3c2cnn3-c2nnc(C(F)F)s2)C[C@H]1C` [EVO29351] the value was less than 100 nM; for `CC(C)C(=O)C(=O)N1CCN(c2cc(S(=O)(=O)NC3(C)CC3)cc3c2cnn3-c2nnc(C(F)F)s2)C[C@H]1C` [EVO29383], less than 100 nM; for `Cc1nnc(-n2ncc3c(N4CCN(C(=O)C(=O)C(C)C)[C@H](C)C4)cc(S(=O)(=O)NC4(C)CC4)cc32)s1` [EVO29384], less than 100 nM. Consider `Cc1nnc(-n2ncc3c(N4CCN(C(=O)C(=O)C(C)C)[C@H](C)C4)cc(S(=O)(=O)NC4(C#N)CC4)cc32)s1` [EVO29385], for which the IC50 was less than 100 nM. For `C[C@@H]1CN(c2cc(S(=O)(=O)NC3(C#N)CC3)cc3c2cnn3-c2nnc(C(F)F)s2)CCN1C(=O)C(=O)C1CC1` [EVO29386] the value was 100 to 500 nM; for `C[C@@H]1CN(c2cc(S(=O)(=O)NC3(C)CC3)cc3c2cnn3-c2nnc(C(F)F)s2)CCN1C(=O)C(=O)C1CC1` [EVO29387], less than 100 nM; for `CC(=O)C(=O)N1CCN(c2cc(S(=O)(=O)NC3(C)CC3)cc3c2cnn3-c2nnc(C(F)F)s2)C[C@H]1C` [EVO29388], less than 100 nM. Compound `C[C@@H]1CN(c2cc(S(=O)(=O)NC3(C#N)CC3)cc3c2cnn3-c2nnc(C(F)F)s2)CCN1C(=O)C(=O)C(C)(C)C` [EVO29405] gave an IC50 of less than 100 nM. With `C[C@@H]1CN(c2cc(S(=O)(=O)NC3(C)CC3)cc3c2cnn3-c2nnc(C(F)F)s2)CCN1C(=O)C(=O)C(C)(C)C` [EVO29406] the figure was less than 100 nM.

On to `Cc1nnc(-n2ncc3c(N4CCN(C(=O)C(=O)C(C)(C)C)[C@H](C)C4)cc(S(=O)(=O)NC4(C#N)CC4)cc32)s1` [EVO29407], for which the IC50 was less than 100 nM. The compound `Cc1nnc(-n2ncc3c(N4CCN(C(=O)C(=O)C(C)(C)C)[C@H](C)C4)cc(S(=O)(=O)NC4(C)CC4)cc32)s1` [EVO29408] displayed an IC50 of less than 100 nM.

With `CO[C@H](C)C(=O)N1CCN(c2cc(S(=O)(=O)NC3(C#N)CC3)cc3c2cnn3-c2nnc(C(F)F)s2)C[C@H]1C` [EVO29409], the IC50 is less than 100 nM. In turn, `CO[C@H](C)C(=O)N1CCN(c2cc(S(=O)(=O)NC3(C)CC3)cc3c2cnn3-c2nnc(C(F)F)s2)C[C@H]1C` [EVO29410] registered an IC50 of less than 100 nM. For `CO[C@H](C)C(=O)N1CCN(c2cc(S(=O)(=O)NC3(C#N)CC3)cc3c2cnn3-c2nnc(C)s2)C[C@H]1C` [EVO29411] the value was less than 100 nM; for `CO[C@H](C)C(=O)N1CCN(c2cc(S(=O)(=O)NC3(C)CC3)cc3c2cnn3-c2nnc(C)s2)C[C@H]1C` [EVO29412], less than 100 nM.

In general, IC50 refers to the concentration that gives 50% inhibition.

The values are drawn from patent EP4559912A1, “SULFUR-CONTAINING HETEROAROMATIC RING COMPOUND, PHARMACEUTICAL COMPOSITION THEREOF, AND USE THEREOF” (Evopoint Biosciences Co., Ltd., priority 2022, dated 2024).
